Patent publication US11059833B2, “BCKDK inhibitors” (Pfizer Inc., priority 2019, dated 2021)
Like-named read-outs stand apart in the source and are kept apart here.

Key:
human BCKDK = target: T1, human BCKDK (Homo sapiens, UniProt O14874); test: In Vitro FRET (TR-FRET) BCKDK activity assay, phosphorylation of BCKDHE1α-E2 fusion substrate; assay type: biochemical
T1 construct: human BCKDK (residues 31-412 of the protein pre-processing); 6xHis (N, cleaved yes); MBP (N, cleaved yes); TEV protease site (ENLYFQG) (N, cleaved yes); made in house; host or cells: BL21(DE3) E. coli, co-expressed with GroEL-GroES
Procedure: For lipoylation, fusion substrate was incubated with LpIA at a 10:1 (substrate:LplA) ratio in 20 mM sodium phosphate pH 7.4, 6 mM MgCl2, 4 mM ATP, 2 mM DTT, 3 mM DL-6,8-thioctic acid at 37° C.
BCKDK activity was monitored by phosphorylation of a HIS-tagged fusion BCKDHE1α-E2 substrate protein as described above and was detected using a time resolved-fluorescence resonance energy transfer (TR-FRET) assay system. Compounds were spotted into a 384 well plate, and purified human BCKDK protein was added to the plated compound. […] The reaction was terminated with EDTA. […] Signal intensity was proportional to the level of BCKDK-mediated substrate phosphorylation. Reactions were normalized to zero percent effect with DMSO and one hundred percent effect with 600 μM Radicicol, a known BCKDK inhibitor. IC50 curves were generated using ABASE software (IDBS, Boston Mass.).

[1] = system: phosphorylation of S293 BCKDH; test: Phospho BCKDHA AlphaLISA in human skeletal myocytes; assay type: cell-based; settings: 1 h, 60 minutes, geometric mean
Procedure: Prior to conducting the assay, BCKDH antibodies (Bethyl A303-790A) were biotinylated using the ChromaLink™ One-Shot Antibody Biotinylation Kit B-9007-009K and phospho Ser293 BCKDHA antibodies (Bethyl A304-672A) were directly conjugated to AlphaLISA Acceptor Beads (custom conjugation performed by Perkin Elmer's Lance/Delfia Custom Services, Boston Mass.). Human skeletal myocytes (Gibco A11440) were plated in a 384 well plate at a density of 7500 live cells/well and grown in skeletal muscle growth media containing the media supplement and chick embryo extract (Promocell C-23060 and C-23160, MP92850145). After overnight incubation, media was removed, and BCKDK inhibitors were added in assay media (growth media diluted 10-fold in PBS). After 60 minutes, the media was removed, the cells were washed with PBS and lysed in 10 μL of buffer (Cell Signaling #9803) containing 2 nM biotinylated total BCKDH antibodies. Samples were incubated for 60 minutes, and 5 μL of AlphaLISA acceptor beads conjugated with phospho-S293 BCKDH antibodies were added 1× Alpha buffer. After a 60 minute incubation, 5 μL streptavidin donor beads (40 μg/μL) beads were added in 1× Alpha buffer while protecting from light. Fluorescence was emitted when the phospho and total BCKDH antibodies were within proximity, signifying phosphorylation of S293 BCKDH. Fluorescence was monitored on the Envision plate reader. The zero percent effect was determined from DMSO treatment and the maximal effect was assessed relative to the BCKDK inhibitor BT2. IC50 curves were generated using ActivityBase software (IDBS, Boston Mass.).

[2] = system: Mice fed 60% high fat diet; test: Diabetic animal model: fasting glucose and oral glucose tolerance test; assay type: in vivo; settings: for Area under the curve for the glucose tolerance test as percent of vehicle treated group: 1 g/kg dextrose; for fasting plasma glucose levels: high fat diet mice, mean±SEM
Procedure: Blood glucose was measured 15, 30, 60, and 120 minutes after the gavage, and the data were plotted and analyzed as area under the curve using GraphPad Prism 8.0 (GraphPad Software, La Jolla, Calif.). Blood was concomitantly collected in EDTA tubes at the 0, 15 and 30 minute time points, spun down at 10K RPM for 10 minutes. […] Area under the curve for the glucose tolerance test as percent of vehicle treated group was 100.0±3 (vehicle, n=29), 100±4 (20 mg/kg, n=18), 87±2 (60 mg/kg, n=30), 78±2 (180 mg/kg, n=16).

[3] = system: Dahl salt sensitive male rats; test: Heart failure rat model (high salt diet); assay type: in vivo; settings: 100 mg/kg PO once daily
Procedure: Dahl salt sensitive male rats (Charles River strain SS/JrHsdMcwiCrl) were fed control diet or 6% high salt diet (iD03121701-AIN-76a rodent diet with added 6% NaCl) for 21 weeks in total. At week 5, the high salt diet-fed rats were dosed PO with 100 mg/kg BT2 or vehicle once daily for the last 16 weeks of study. Echocardiography was performed at week 18 (myocardial performance index (MPI): control diet 0.567±0.034, high salt+vehicle 0.810±0.039, high salt+BT2 0.660±0.030; Isovolumic relaxation time (IVRT): control diet 23.154±0.60 ms, high salt+vehicle 36.507±2.20 ms, high salt+BT2 31.605±1.78 ms; Intraventricular septal thickness at diastole (IVDd): control 2.03±0.088 mm, high salt+vehicle 2.877±0.110 mm, high salt+BT2 2.489±0.089 mm). NT-pro-BNP (MSD K153JKD; control […], high salt+vehicle 1003.0±200.8 μg/mL, high salt+BT2 503.4±84.96 μg/mL), and proANP (MSD K153MBD; control 33.50±5.4 ng/mL, high salt 65.19±8.3 ng/mL, high salt+BT2 38.81±7.0 ng/mL) levels were measured in plasma using MSD assays at the terminal time point. Heart weights were measured at euthanasia and normalized to tibia length (heart/tibia control 0.033±0.001 g/mm; high salt+vehicle 0.042±0.001 g/mm, high salt+BT2 0.038±0.001 g/mm).

[4] = purified human BCKDK, 15 μM ATP, geometric mean, read-out: In Vitro FRET IC50

Structure (SMILES)	IC50 (human BCKDK; [4]) [nM]	IC50 [1] [nM]	also measured
O=C(O)c1cc2sc(F)c(F)c2s1 [Example 4, 5,6-Difluorothieno[3,2-b]thiophene-2-carboxylic acid]	58	390	–
Cc1c(F)sc2cc(C(=O)O)sc12 [Example 6, 5-fluoro-6-methylthieno[3,2-b]thiophene-2-carboxylic acid]	230	4200	–
O=C(O)c1cc2sc(Cl)c(F)c2s1 [Example 12, 5-chloro-6-fluorothieno[3,2-b]thiophene-2-carboxylic acid]	400	1200	–
O=C(O)c1sc2cc(F)sc2c1Cl [Example 1, 3-Chloro-5-fluorothieno[3,2-b]thiophene-2-carboxylic acid]	–	720	Area under the curve for the glucose tolerance test as percent of vehicle treated group ([2]; 20 mg/kg PO, n=18 (vehicle 100.0±3)): 100±4% of vehicle treated group; fasting plasma glucose levels ([2]; 20 mg/kg PO, n=18 (vehicle 237±5)): 230 ± 8 mg/dL; Area under the curve for the glucose tolerance test as percent of vehicle treated group ([2]; 60 mg/kg PO, n=30 (vehicle 100.0±3)): 87±2% of vehicle treated group; fasting plasma glucose levels ([2]; 60 mg/kg PO, n=40 (vehicle 237±5)): 221 ± 4 mg/dL; Area under the curve for the glucose tolerance test as percent of vehicle treated group ([2]; 180 mg/kg PO, n=16 (vehicle 100.0±3)): 78±2% of vehicle treated group; fasting plasma glucose levels ([2]; 180 mg/kg PO, n=19 (vehicle 237±5)): 206 ± 5 mg/dL
O=C(O)c1sc2cc(F)sc2c1Br [Example 2, 3-Bromo-5-fluorothieno[3,2-b]thiophene-2-carboxylic acid]	120	1500	–
O=C(O)c1sc2cc(F)ccc2c1Cl [BT2F, 3-chloro-6-fluoro-1-benzothiophene-2-carboxylic acid, reference compound]	810	–	–
O=C(O)c1sc2c(F)c(Cl)sc2c1F [Example 13, 5-chloro-3,6-difluorothieno[3,2-b]thiophene-2-carboxylic acid]	470	1900	–
CCc1c(C(=O)O)sc2cc(Cl)sc12 [Example 16, 5-chloro-3-ethylthieno[3,2-b]thiophene-2-carboxylic acid]	880	3600	–
O=C(O)c1sc2c(F)c(F)sc2c1Cl [Example 8, 3-chloro-5,6-difluorothieno[3,2-b]thiophene-2-carboxylic acid]	260	1800	–
O=C(O)c1sc2cc(Cl)ccc2c1Cl [BT2, 3,6-dichloro-1-benzothiophene-2-carboxylic acid]	–	4500	IC50 (human BCKDK): 1300 nM; heart weight normalized to tibia length (heart/tibia) ([3]; at euthanasia (high salt+vehicle 0.042±0.001, control 0.033±0.001)): 0.038±0.001 g/mm; myocardial performance index (MPI) ([3]; echocardiography at week 18 (high salt+vehicle 0.810±0.039, control diet 0.567±0.034)): 0.660±0.030; Intraventricular septal thickness at diastole (IVDd) ([3]; echocardiography at week 18 (high salt+vehicle 2.877±0.110, control 2.03±0.088)): 2.489±0.089 mm; Isovolumic relaxation time (IVRT) ([3]; echocardiography at week 18 (high salt+vehicle 36.507±2.20, control diet 23.154±0.60)): 31.605 ± 1.78 ms; proANP level in plasma ([3]; terminal time point (high salt 65.19±8.3, control 33.50±5.4)): 38.81 ± 7.0 ng/mL; NT-pro-BNP level in plasma ([3]; terminal time point (high salt+vehicle 1003.0±200.8, control 294.9±26.04)): 503.4 ± 84.96 µg/mL
Cc1c(C(=O)O)sc2cc(F)sc12 [Example 9, 5-fluoro-3-methylthieno[3,2-b]thiophene-2-carboxylic acid]	280	1600	–
O=C(O)c1sc2cc(Cl)sc2c1C(F)F [Example 11, 5-chloro-3-(difluoromethyl)thieno[3,2-b]thiophene-2-carboxylic acid]	370	2200	–
O=C(O)c1sc2cc(Cl)sc2c1Br [Example 15, ammonium 3-bromo-5-chlorothieno[3,2-b]thiophene-2-carboxylate]	840	2800	–
O=C(O)c1sc2cc(Cl)sc2c1F [Example 7, 5-chloro-3-fluorothieno[3,2-b]thiophene-2-carboxylic acid]	260	1100	–
Cc1c(C(=O)O)sc2cc(Cl)sc12 [Example 14, 5-chloro-3-methylthieno[3,2-b]thiophene-2-carboxylic acid]	800	–	–
O=C(O)c1cc2sc(F)c(Cl)c2s1 [Example 10, 6-chloro-5-fluorothieno[3,2-b]thiophene-2-carboxylic acid]	330	3400	–
O=C(O)c1sc2cc(F)sc2c1C(F)F [Example 3, 3-(Difluoromethyl)-5-fluorothieno[3,2-b]thiophene-2-carboxylic acid]	65	1800	–
O=C(O)c1sc2cc(F)sc2c1F [Example 5, 3,5-Difluorothieno[3,2-b]thiophene-2-carboxylic acid]	140	410	–
